This is an account of results in ChEMBL document CHEMBL2413030, “Multimerized CHR-derived peptides as HIV-1 fusion inhibitors” (Bioorg Med Chem, 2013).

One may read the CC50 as the concentration giving 50% cytotoxicity. By IC50 is commonly meant the concentration needed to halve the response being measured.

Square brackets hold non-standard residues; d marks the D form. Nle = CCCC[C@H](N)C(=O)O

Data set [1] in a line: Cytotoxicity against human TZM-bl cells by MTS assay. In kind it is cell-based.
For data set [2], the system named is Human immunodeficiency virus 1. As to the kind of experiment: Antiviral activity against HIV1 NL4-3 assessed as inhibition of viral fusion with human TZM-bl cells after 48 hrs by steady glo luciferase reporter gene assay. The data set is classed as functional, organism-based. Particulars: Human immunodeficiency virus 1, NL4-3, TZM-bl.

Substance “H-W[Nle]EWDRKIEEYTKKIEELIKKSQEQQEKNEKELKREREREG-OH” displayed a CC50 in data set [1] of more than 5000 nM. In addition, the IC50 in data set [2] was found to be 1.82 nM.

enfuvirtide returned a CC50 in data set [1] of more than 5000 nM. In addition, the IC50 in data set [2] stood at 45.2 nM.
